Patent US12029738B2, “Antiproliferative compounds and methods of use thereof” (Celgene Corporation, priority 2017, dated 2024)
Like-named read-outs stand apart in the source and are kept apart here.

Experiments:
α1A adrenergic receptor = molecular target: T1, α1A adrenergic receptor (Homo sapiens, UniProt P35348); experiment: α1A adrenergic receptor antagonist assay (calcium mobilization, CHO cells); format: cell-based; conditions: epinephrine 3 nM; calcium mobilization; read-out: Antagonism IC50 α1A
T1 construct: host or cells: CHO cells
T1 sequence (P35348 1-466): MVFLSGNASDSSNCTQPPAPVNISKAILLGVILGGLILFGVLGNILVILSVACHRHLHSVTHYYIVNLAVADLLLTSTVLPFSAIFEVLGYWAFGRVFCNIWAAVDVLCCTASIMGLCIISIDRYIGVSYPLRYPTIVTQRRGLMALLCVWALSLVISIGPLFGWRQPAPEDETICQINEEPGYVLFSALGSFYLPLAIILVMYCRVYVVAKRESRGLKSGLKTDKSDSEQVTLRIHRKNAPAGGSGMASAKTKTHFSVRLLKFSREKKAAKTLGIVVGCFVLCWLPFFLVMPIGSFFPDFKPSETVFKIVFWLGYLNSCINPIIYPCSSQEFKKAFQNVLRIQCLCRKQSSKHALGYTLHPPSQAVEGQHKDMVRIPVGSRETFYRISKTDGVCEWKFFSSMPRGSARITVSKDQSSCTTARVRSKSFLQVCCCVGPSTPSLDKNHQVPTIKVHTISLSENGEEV
Experimental: (§1) α1 Adrenergic and Dopamine D2 Receptors. Methods: Binding and functional assays for α1 adrenergic and dopamine D2 receptors were performed by Eurofins Cerep according to their methods.
Antagonist activity. The antagonistic effects of test compounds on the α1A and α1B adrenergic receptors were measured using human receptor-transfected Chinese hamster ovary (CHO) cells. Antagonist activity was determined by measuring compound effect on agonist (epinephrine)-induced calcium mobilization in the α1A receptor assay or cAMP levels in the α1B receptor assay. In these experiments, CHO cells were incubated in duplicate at room temperature with test article and epinephrine at 3 nM in the α1A receptor assays or at 3000 nM in the α1B receptor assay. Compound A was tested in the α1A receptor assay at 0.01-30 μM. […] Compound 1 and Compound 2 were assayed at 0.03 to 30 μM in the α1A receptor assay and 0.03 to 100 μM in the α1B receptor assay. In the α1A receptor assay, cytosolic calcium levels were measured fluorometrically using the fluorescent probe, Fluo4 Direct. Intracellular cAMP levels in the α1B adrenergic receptor assay were measured by homogenous time-resolved fluorescence (HTRF). The antagonism IC50 was defined as the concentration causing a half-maximum inhibition of control agonist response.

dopamine D2S receptor [1] = molecular target: T2, dopamine D2S receptor (Homo sapiens, UniProt P14416); experiment: Dopamine D2S receptor agonist assay (impedance, HEK-293); format: cell-based; conditions: impedance; versus dopamine control; read-out: D2S Agonism EC50
T2 construct: host or cells: HEK-293 cells (membrane homogenates)
Experimental: as §1
Agonist activity. The agonism of test compounds on the dopamine D2S receptor was assessed using human receptor-transfected HEK-293 cells. Agonist activity was determined by measuring compound effect on impedance modulation. In these experiments, HEK-293 cells were incubated in duplicate at 28° C. with test article. Compound A was tested at 0.01-30 μM. […] Dopamine (3 μM) was used as an agonist control. Impedance measurements were monitored for 10 minutes after ligand addition using cellular dielectric spectroscopy. The EC50 was defined as the concentration causing a half-maximum response, compared to the control agonist (dopamine) response.

dopamine D2S receptor [2] = molecular target: T2, dopamine D2S receptor; experiment: Dopamine D2S receptor radioligand binding (HEK-293)
Experimental: as §1
Dopamine D2 Receptor. Binding at 10 μM. The binding assay evaluated the affinity of test articles for the dopamine D2 receptor in transfected human embryonic kidney (HEK)-293 cells. For determining the binding in the D2S receptor assay, test article was incubated with 0.3 nM [^3H] methylspiperone or 1 nM [^3H] 7-hydroxy-2-N,N-dipropylaminotetralin (7-OH-DPAT). [3H] Methylspiperone at 0.3 nM also was used as control ligand in the D2L binding assay. Cell membrane homogenates were incubated in duplicate at room temperature for 60 minutes with ligand in the absence or presence of test articles at 10 μM. After the incubation period, samples were filtered through glass fiber filters, the filters dried and then counted for radioactivity using a scintillation counter. Results are expressed as mean percent inhibition of control radioligand binding.
Binding IC50. To determine the binding IC50 in the D2 receptor assays, HEK-293 were tested as described above but with varying concentrations of test article. Compound A was tested at 0.01-30 μM in the D2S radioligand binding assay. […] Compound 1 was assayed at 0.03-100 μM in both the D2S and D2L assays, while Compound 2 was tested at 0.03-100 μM in the D2S assay and 0.01-100 μM in the D2L assays. The IC50 was defined as the concentration causing a half-maximum inhibition of control specific binding.

in vivo = conditions: rat
Experimental: 7-Day Exploratory Toxicology Studies in Male Rats. Methods. Male CD-IGS rats (n=5/group for toxicologic assessment; n=4/group for toxicokinetic assessment) were dosed once daily by oral gavage (10 mL/kg) with vehicle (0.5% HPMC/0.25% Tween-80 in 50 mM citrate, pH 2.6-2.8) or test articles (Compound A or Compound 1) at 100, 300 or 1000 mg/kg/day for 7 consecutive days. Blood samples for toxicokinetics were collected on Days 1 and 7. […] Body weight was recorded at randomization, prior to dosing on Days 1-7 and prior to necropsy. Samples for hematology and serum chemistry analyses were collected on Day 8, approximately 24 h after the last dose. Rats were euthanized on Day 8 for necropsy. Anatomic pathology evaluation consisted of gross observation, organ weight and histopathologic examination of select tissues.

[3] = system: non-selective α1 adrenergic receptor; experiment: α1 adrenergic receptor radioligand binding ([3H]prazosin); conditions: rat cerebral cortex
Experimental: as §1
α1 Adrenergic Receptor. Binding at 10 μM. The binding assay evaluated the affinity of test article for the non-selective α1 adrenergic receptor in rat cerebral cortex. Membrane homogenates of cerebral cortex were incubated in duplicate for 60 minutes at room temperature with 0.25 nM [^3H]prazosin in the absence or presence of test articles at 10 μM. After the incubation period, samples were filtered through glass fiber filters, the filters dried and then counted for radioactivity using a scintillation counter. Results are expressed as mean percent inhibition of control radioligand binding.
Binding IC50. […] Compound A was tested at 0.01-30 μM. […] Compound 1 and Compound 2, the S-enantiomer of Compound 1, were assayed at 0.03-100 μM. Radioactivity was measured as described above. The IC50 was defined as the concentration causing a half-maximum inhibition of control specific binding.

OPM2-P10 = experiment: PBMC and MM cell treatment assay (single culture vs co-culture); format: cell-based, human; conditions: Homo sapiens, PBMC, read-out: Immune-mediated Cell Killing IC50
Experimental: (§2) PBMC and MM Cell Treatment Assay Procedure. Ninety-six-well dishes were pre-coated with anti-CD3 antibody (OKT3, 3 μg/mL) and incubated at 4° C. overnight before the start of the experiment. Frozen PBMC donor cells were thawed at 37° C. for 2 minutes in RPMI medium with 10% FBS and cell counts and viability were measured on the Vi-CELL analyzer. Peripheral blood mononuclear cells were washed and diluted to 1×10^6 cells/mL and dispensed into the compound-treated plates in a total volume of 200 μL. Cells were incubated with compounds for 2 h before being transferred onto anti-CD3-coated plates and incubated for an additional 72 h. At the same time, MM cell lines (NCI-H929, H929-1051, OPM2, OPM2-P10) were diluted to a final concentration of 0.1×10^6 cells/mL and labeled with CellTrace CFSE according to manufacturer's instructions. Multiple myeloma cell lines were then dispensed into compound-treated plates at a total volume of 200 μL and incubated for 72 h. After 72 h, the PBMCs and MM cells were counted and transferred into a U-bottom 96-well plate at a final T:E ratio of 1:5. After 24 h coculture, specific target cell lysis by PBMC cells was measured using Annexin V-AF647 and 7-AAD according to manufacturer's instructions and samples were run on the Attune NxT Cytometer.
(§3) Because preincubation of immune cells with Compound 2 enhanced the targeting and lysing of MM cells, the effect of preincubation of MM cells with Compound 2 on their susceptibility to immune-mediated killing was also explored (FIG. 16A, FIG. 16B, FIG. 16C, and FIG. 16D, Table 12). Four MM cell lines and anti-CD3 antibody-activated PBMCs were separately preincubated with Compound 2, lenalidomide, or pomalidomide for 72 h. When anti-CD3 antibody-activated PBMCs and MM lines were both pretreated with Compound 2, lenalidomide, or pomalidomide, followed by co-culture, the effects on the PBMC-induced MM cell lysis were enhanced both in the potency and magnitude of the killing response. […] For the pomalidomide-resistant OPM2-P10 cell line, Compound 2 treatment of the MM cells enhanced the immune-mediated killing by ˜3000-fold (Table 12).

NCI-H929 = experiment: as above; format: cell-based, human; conditions: Homo sapiens, NCI-H929, NCI-H929, read-out: Immune-mediated Cell Killing IC50
Experimental: as §2, §3

H929-1051 = experiment: as above; format: cell-based, human; conditions: Homo sapiens, PBMC, H929-1051, read-out: Immune-mediated Cell Killing IC50
Experimental: as §2, §3

OPM2 = experiment: as above; format: cell-based; conditions: Homo sapiens, OPM-2, OPM2, read-out: Immune-mediated Cell Killing IC50
Experimental: as §2, §3

RPMI-8226 = experiment: as above; format: cell-based; conditions: Homo sapiens, RPMI-8226, RPMI-8226, read-out: Immune-mediated Cell Killing IC50
K562 cells = experiment: Coculture of compound-treated IL-2-activated PBMCs with K562 cells; format: cell-based, human; conditions: Homo sapiens, K562; IL-2-activated PBMCs treated 72 h; 4 h coculture; read-out: IC50 of compound-treated PBMCs for direct K562 cell killing
Experimental: Coculture Experiments with Peripheral Blood Mononuclear Cells and K562 Cells. Methods: Human Peripheral Blood Mononuclear Cell (PBMC) Preparation: PBMCs isolated from healthy donors were cultured in RPMI 1640 medium with 10% FBS at a density of 1×10^6 cells/mL.
Cell Culture: K562 cells were kept in log phase, and cell density and viability were monitored by trypan blue exclusion using the Vi-CELL® XR cell viability analyzer (Beckman Coulter, Brea, CA).
Assay Procedures: Freshly isolated human PBMCs were cultured with recombinant IL-2 at concentration of 20 units/mL for 72 h. Peripheral blood mononuclear cells were then spun down and re-suspended in fresh RPMI complete medium to 2×10^6 cells/mL. Cells were then treated with DMSO or compounds at the indicated concentrations and incubated for an additional 72 h. The PBMCs were then washed twice in fresh RPMI complete medium prior to coculture. K562 cells were re-suspended to a cell density of 1×10^6/mL and stained with 1 μM CellTrace CFSE according to manufacturer's instructions. The labeled K562 cells were then seeded into a 96-well round bottom plate at 1×10^5 cells/well. Peripheral blood mononuclear cells were then transferred into the same 96-well plate at a 1:15 ratio, in triplicate and incubated at 37° C. for 4 h. Specific target cell lysis by PBMC cells was measured using Annexin V-fluorescein isothiocyanate (FITC) and propidium iodide (PI) according to manufacturer's instructions and samples were run on the FACS Array scan. Non-labeled K562 cells, CellTrace CFSE-labeled K562 cells, and Annexin V-FITC- and PI labeled untreated K562 cells were included in each assay as controls.

[4] = system: multiple myeloma and plasma cell leukemia cell lines (OPM2.P10, RPMI.8226, L363, JJN-3); experiment: Combination with proteasome inhibitor pulse (flow cytometry, 72 h); format: cell-based, human; conditions: L363; 1 h pulse
Experimental: Twenty four hours prior to treatment with a proteasome inhibitor and test compound, an appropriate number of cells were split to a concentration of 0.2×10^6/mL in fresh media to allow for exponential growth. On the day of treatment, compounds were freshly solvated in DMSO. Proteasome inhibitors bortezomib or carfilzomib were diluted and added to pre-warmed culture media at the final working concentrations of 150 nM or 300 nM for bortezomib and 300 nM or 550 nM for carfilzomib. Proteasome inhibitor concentrations were determined based upon clinical Cmax concentrations as well as previous studies in each cell line which determined the duration and concentration of PI required to inhibit a specific amount of β5 proteasome activity. Cells were counted and an appropriate number were placed into media containing proteasome inhibitor and thoroughly mixed. After incubation for 1 h at 37° C., 5% CO2, cells were washed two times with 40 mL of complete media to remove the proteasome inhibitor. […] Plated cells were cultured at 37° C., 5% C02, for the remainder of the experiment, up to 72 h. Every 24 h, proteasome inhibition was monitored by the Cell-Based Proteasome-Glo Assay. Proliferation and apoptosis were measured at 72 h by flow cytometry. Cells were stained with APC Annexin-V and 7-AAD to enumerate the number of viable cells remaining in culture.
An in vitro cell assay was established in order to mimic the clinical pharmacokinetics (PK) and pharmacodynamics (PD) of exposure to proteasome inhibitors bortezomib and carfilzomib.

[5] = system: lenalidomide-resistant NCI-H929 (H929-1051) multiple myeloma/plasmacytoma tumors; experiment: H929-1051 xenograft, Compound 2 alone and with bortezomib; format: in vivo, mouse

T2 sequence (P14416 1-414 isoform P14416-2): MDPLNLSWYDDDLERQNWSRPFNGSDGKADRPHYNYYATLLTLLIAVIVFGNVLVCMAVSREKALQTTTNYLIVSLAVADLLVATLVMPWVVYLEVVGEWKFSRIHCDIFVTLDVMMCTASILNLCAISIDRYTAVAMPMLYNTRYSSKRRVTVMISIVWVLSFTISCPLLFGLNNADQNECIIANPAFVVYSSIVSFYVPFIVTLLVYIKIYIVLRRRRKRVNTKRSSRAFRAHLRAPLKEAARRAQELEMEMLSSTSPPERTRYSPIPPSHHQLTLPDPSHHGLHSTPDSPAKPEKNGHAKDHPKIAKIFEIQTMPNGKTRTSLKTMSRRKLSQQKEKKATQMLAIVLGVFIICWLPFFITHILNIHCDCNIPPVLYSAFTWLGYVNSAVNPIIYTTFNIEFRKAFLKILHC

`O=C1CCC(N2Cc3c(OCc4ccc(CN5CCN(c6ccc(F)cc6F)CC5)cc4)cccc3C2=O)C(=O)N1` (racemic) [Compound A, 3-(4-((4-((4-(2,4-difluorophenyl)piperazin-1-yl)methyl)benzyl)oxy)-1-oxoisoindolin-2-yl)piperidine-2,6-dione] showed an IC50 (α1A adrenergic receptor) of 0.014 µM, an EC50 (dopamine D2S receptor [1]) of 0.016 µM and an IC50 (dopamine D2S receptor [2]; read-out: D2S Binding IC50) of 0.15 µM. For the same compound, the inhibition at 10 µM (dopamine D2S receptor [2]; read-out: Dopamine D2S % Inhibition (10 μM)) was 99%, the AUC(0-t) (in vivo; male, CD-IGS, po, 100 mg/kg/day) was 441 µM·h and the AUC(0-t) (in vivo; male, CD-IGS, po, 300 mg/kg/day) was 1230 µM·h. For the same compound, the AUC(0-t) (in vivo; male, CD-IGS, po, 1000 mg/kg/day) was 1760 µM·h, the “dose at which abnormal stomach content (dry, feed material) was observed grossly” value (in vivo; male, CD-IGS, po, 7 days) was no less than 100 mg/kg and the “dose at which clinical signs of toxicity (hunched posture, piloerection, decreased activity) and decreased body weight were observed” value (in vivo; male, CD-IGS, po, 7 days) was no less than 300 mg/kg. The “test article-related microscopic findings” value (in vivo) was “minimal multifocal myocardial necrosis and mixed cell infiltration in hearts of rats at all dose levels”, the “Adrenergic α1 (non-selective) % Inhibition (10 μM)” value ([3]; 10 μM, 0.25 nM [3H]prazosin) was 102% and the IC50 ([3]; [3H]prazosin) was 0.064 µM.
`Nc1cccc2c1CN(C1CCC(=O)NC1=O)C2=O` (centres unmarked) [Lenalidomide, lenalidomide] gave an IC50 (OPM2-P10; Co-culture with PBMCs) of 8.09 µM, an IC50 (OPM2-P10; Single culture) greater than 10 µM and an IC50 (NCI-H929; Co-culture with PBMCs) of 0.317 µM. For the same compound, the IC50 (NCI-H929; Single culture) was greater than 10 µM, the IC50 (H929-1051; Co-culture with PBMCs) was 0.878 µM and the IC50 (H929-1051; Single culture) was greater than 10 µM. For the same compound, the IC50 (OPM2; Co-culture with PBMCs) was 1.72 µM, the IC50 (OPM2; Single culture) was greater than 10 µM and the IC50 (RPMI-8226; Co-culture with PBMCs) was 0.124 µM. The IC50 (RPMI-8226; Single culture) was greater than 10 µM and the IC50 (K562 cells) was 0.02 µM.
With `CC(C)C[C@H](NC(=O)[C@H](Cc1ccccc1)NC(=O)c1cnccn1)B(O)O` [bortezomib] the “single agent activity on cell viability” value [4] was “no single agent activity on cell viability”, the “tumor growth inhibition / tumor volume reduction (TVR)” value ([5]; single agent bortezomib 1 mg/kg iv single dose day 31, day 50) was 60% and the “day by which tumors reached approximately 2000 mm^3” value ([5]; single agent, 1 mg/kg) was 66 days.
